# Measured values reported in article PMC9950431, “A bivalent remipede toxin promotes calcium release via ryanodine receptor activation” (Nature Communications, 2023).
# What was measured:
# [1] = test system: α7 nAChR; assay: FLIPR Ca2+ assay, inhibition of endogenous α7 nAChR; assay type: cell-based, human; settings: for Ca2+ response relative to control response: 3 µM Xt3a pre-treatment, choline 30 μM/PNU-120596 10 μM, over 300 s
# Protocol: (§1) SH-SY5Y human neuroblastoma cells (European Collection of Authenticated Cell Culture, Sigma Aldrich, 94030304-1VL) were cultured in RPMI media (ThermoFisher Scientific, Scoresby, Australia) supplemented with 15% foetal bovine serum and L-glutamine (1 mM) and passaged at approximately 80% confluency with TrypLE Express (Thermo Fisher, Australia). For fluorescence imaging, cells were plated on CellBIND (Corning) 384-well black-walled imaging plates at a density of 20,000–30,000 cells/well in complete media and cultured for 48 h at 37 °C/5% CO2.
# (§2) Briefly, SH-SY5Y cells were loaded with Calcium 4 no-wash dye (Molecular Devices) diluted in physiological salt solution (composition in mM: NaCl 140, D-glucose 11.5, KCl 5.9, MgCl2 1.4, NaH2PO4 1.2, NaHCO3 5, CaCl2 1.8, HEPES 10) for 30 min at 37 °C. A two-addition FLIPR^Tetra (Molecular Devices) protocol using the following settings was used to measure fluorescence responses: excitation 470–495 nm; emission 515–575 nm; excitation intensity 80%; excitation duration 0.8 s; gain 140; read interval 1/s; read number 300/addition. Responses mediated via endogenously expressed ion channels were elicited by addition of: choline (30 μM)/PNU-120596 (10 μM) for α7 nAChR-mediated responses; nicotine (30 μM) for α3β2/α3β4 nAChR-mediated responses; KCl (90 mM)/CaCl2 (5 mM) for CaV1.3-mediated responses; KCl (90 mM)/CaCl2 (5 mM) + nifedipine (10 μM) for CaV2.2-mediated responses; vertridine (70 μM) for NaV1.2-mediated responses; and veratridine (4 μM)/OD1 (300 nM) for NaV1.7-mediated responses. Raw fluorescence readings were converted to response over baseline using the analysis tool Screenworks 3.1.1.4 (Molecular Devices) and were expressed relative to the maximum increase in fluorescence of control responses and plotted using GraphPad Prism 9.3.1.
# (§3) In the cell-based FLIPR assays statistical analysis was performed using GraphPad Prism 9.3.1. Statistical significance was defined as p < 0.05, and determined by one-sample t-test assessing difference to the control value of 100%. In α7 nAChR, α3-containing nAChR, CaV1.3, CaV2.2, NaV1.2 and NaV1.7 channels (Supplementary Fig. 5B), with distribution (t) and degrees of freedom (df) being: t = 0.9683, df = 2 (α7); t = 1.338, df = 2 (α3); t = 1.775, df = 2 (NaV1.2); t = 1.478
# [2] = test system: sarcoplasmic reticulum (SR) in mouse extensor digitorum longus (EDL) fibers; assay: SR Ca2+ leak in mechanically-skinned EDL muscle fibers (total SR Ca2+ content, [CaT]SR, after 1 min leak); assay type: cell-based, mouse (C57/Bl6)
# Description: All experiments were approved by The University of Queensland Animal Ethics Committees. Male and female C57/Bl6 2–6-month-old mice were sacrificed by asphyxiation via CO2 exposure and the EDL muscles were rapidly excised. The EDL was pinned at resting length in a petri dish lined with Sylgard 184 (Dow Corning, Midland, MI) and immersed in paraffin oil (Ajax Chemicals, Sydney, Australia). Segments of individual fibers were mechanically skinned using jeweler’s forceps and pinned out unstretched under oil[37]–[39]. The skinned fiber was then mounted at 120% of resting length on a force transducer (Myotronic UG, Heidelberg, Germany) before transfer to a 2-ml Perspex bath containing standard K^+-based solution that broadly mimics the intracellular milieu. […] All chemicals were purchased from Sigma-Aldrich (St Louis, MO, USA) unless specified otherwise.
# Variations of the standard solution were prepared. To deplete the caffeine releasable Ca^2+ (“full release solution”), 30 mM caffeine was added, [Mg^2+] was lowered to 0.05 mM (total Mg^2+ of 2.1 mM) and free EGTA was adjusted to 0.5 mM (pCa 8.5) to chelate released Ca^2+. To measure the maximum force produced by the skinned fiber, all HDTA was replaced by EGTA (relaxing solution) or CaEGTA (maximum Ca^2+ activating solution). The relaxing solution contained 50 mM EGTA and no added Ca^2+ (pCa > 9) and the maximum Ca^2+-activating solution contained 49.5 mM Ca^2+ (pCa 4.7), with total Mg^2+ of 10.3 and 8.1 mM, respectively, to maintain the free [Mg^2+] at 1 mM. A “leak solution” was also prepared, where [Mg^2+] set at 0.1 mM (total Mg^2+ of 3.4 mM) to increase the PO of RyR and with 2 mM EGTA (pCa ~8.5) to chelate leaky Ca^2+ from the SR. […] The BAPTA solution used to pre-equilibrate fibers before lysing was similar to the standard K-HDTA solution but EGTA was replaced with 0.1–1.6 mM BAPTA[37],[39].
# The skinned fiber was then equilibrated for 20 s in a solution with a set [BAPTA] before being placed in a freshly triturated emulsion of Triton X-100 in paraffin oil (TX–oil) (10% v/v). The Ca^2+ released upon the membrane lysing rapidly binds to the known amount of BAPTA present within the fiber and to other sites, predominantly troponin C (TnC). The pre-equilibrating [BAPTA] was chosen such that the fiber produced a finite, non-maximal force response upon lysis. Pre-treatment of the fiber with “full release solution” allowed the non-SR Ca^2+ content of the skinned fiber to be assayed. The total amount of Ca^2+ present in the fiber could be calculated from the [BAPTA] in the equilibration solution and the magnitude of the force response. Data are presented as mean ± SD, with n denoting the number of fibers examined. Statistical significance (p < 0.05) was determined with One-way ANOVA.
# [3] = test system: NaV1.2; assay: FLIPR Ca2+ assay, inhibition of endogenous NaV1.2; assay type: cell-based, human; settings: for Ca2+ response relative to control response: 3 µM Xt3a pre-treatment, veratridine 70 μM, over 300 s
# Protocol: as §1, §2, §3
# [4] = test system: CaV1.3; assay: FLIPR Ca2+ assay, inhibition of endogenous CaV1.3; assay type: cell-based, human; settings: for Ca2+ response relative to control response: 3 µM Xt3a pre-treatment, KCl 90 mM/CaCl2 5 mM, over 300 s
# Protocol: as §1, §2, §3
substance,measurement,setting,value
φ-Xibalbin3-Xt3a,Ca2+ response relative to control response,[1]; replicate 1,99.1155%
same,Ca2+ response relative to control response,[1]; replicate 2,100.788%
same,Ca2+ response relative to control response,[1]; replicate 3,96.222%
same,inhibition of Ca2+ responses,[1]; Xt3a 3 µM,did not inhibit Ca^2+ responses
same,efficiency to increase SR Ca2+ leakage (order),[2]; 10 nM,Xt3a > Xt3a-D1 ~ IpTxA > Xt3a-D2
same,depletion of [CaT]SR,"[2]; 10 nM peptide in leak solution, 1 min leak, mean ± SD, control leak 18 ± 7%",76 ± 5%
same,Relative amount of total Ca2+ left in the SR ([CaT]SR),"[2]; 10 nM peptide, 1 min leak, relative to Pre, fiber 2 of column",20.6
same,Relative amount of total Ca2+ left in the SR ([CaT]SR),"[2]; 10 nM peptide, 1 min leak, relative to Pre, fiber 3 of column",24.9
same,Relative amount of total Ca2+ left in the SR ([CaT]SR),"[2]; 10 nM peptide, 1 min leak, relative to Pre, fiber 4 of column",22.9
same,Relative amount of total Ca2+ left in the SR ([CaT]SR),"[2]; 10 nM peptide, 1 min leak, relative to Pre, fiber 5 of column",23.5
same,Relative amount of total Ca2+ left in the SR ([CaT]SR),"[2]; 10 nM peptide, 1 min leak, relative to Pre, fiber 6 of column",22.7
same,Relative amount of total Ca2+ left in the SR ([CaT]SR),"[2]; 10 nM peptide, 1 min leak, relative to Pre, fiber 7 of column",27.4
same,Relative amount of total Ca2+ left in the SR ([CaT]SR),"[2]; 10 nM peptide, 1 min leak, relative to Pre, fiber 8 of column",27.5
same,Relative amount of total Ca2+ left in the SR ([CaT]SR),"[2]; 10 nM peptide, 1 min leak, relative to Pre, fiber 9 of column",25.7
same,Relative amount of total Ca2+ left in the SR ([CaT]SR),"[2]; 10 nM peptide, 1 min leak, relative to Pre, fiber 10 of column",30.9
same,Relative amount of total Ca2+ left in the SR ([CaT]SR),"[2]; 10 nM peptide, 1 min leak, relative to Pre, fiber 11 of column",32.9
same,Relative amount of total Ca2+ left in the SR ([CaT]SR),"[2]; 10 nM peptide, 1 min leak, relative to Pre, fiber 12 of column",22.4
same,Relative amount of total Ca2+ left in the SR ([CaT]SR),"[2]; 10 nM peptide, 1 min leak, relative to Pre, fiber 13 of column",13.3
same,"Relative amount of total Ca2+ left in the SR ([CaT]SR), mean","[2]; 10 nM peptide, 1 min leak, relative to Pre, mean (n = 13 Xt3a, n = 10 others)",24.4
same,Relative amount of total Ca2+ left in the SR ([CaT]SR),"[2]; 10 nM peptide, 1 min leak, relative to [CaT]SR before the leak (Pre), fiber 1 of column",21.9
same,Ca2+ response relative to control response,[3]; replicate 1,91.9349%
same,Ca2+ response relative to control response,[3]; replicate 2,100.571%
same,Ca2+ response relative to control response,[3]; replicate 3,88.9832%
same,inhibition of Ca2+ responses,[3]; Xt3a 3 µM,did not inhibit Ca^2+ responses
same,Ca2+ response relative to control response,[4]; replicate 1,100.265%
same,Ca2+ response relative to control response,[4]; replicate 2,98.0302%
same,Ca2+ response relative to control response,[4]; replicate 3,95.1795%
same,inhibition of Ca2+ responses,[4]; Xt3a 3 µM,did not inhibit Ca^2+ responses
